According to patent US20110039763A1, “TARGETED ANTIMICROBIAL MOIETIES” (C3 JIAN, INC., priority 2009, published 2011):
“Also recorded” adds a separate entry of the source.

Assays:
microorganisms [1] = experiment: Targeting peptide binding to target microorganisms (Tables 3, 10, 12); conditions: microorganism(s) the targeting peptide binds, preferably 1x PBS
microorganisms [2] = experiment: Peptide activities: targeting/binding, antimicrobial, growth or phenotype altering (Tables 7, 8); format: cell-based; conditions: peptides having multiple activities
microorganisms [3] = experiment: Morphology, biofilm and growth disrupting peptides (Table 5); format: cell-based; set-up: key: A: Peptide aggregates; B: Less hyphal formation; Clumps; Diffuse clumps and small polyps; F: Diffuse growth; H: Thin; I: Growth inhibition; Microcolony formation; Rippled; Small polyps; Thick; W: Halo formation on top, microlonies on bottom
From the text: In certain embodiments peptides that induce alterations in phenotype or other biological activities can also be used as antimicrobial effector moieties.

[4] = binding in aqueous buffers that varied with peptide solubility
[5] = binding in aqueous buffers varied with peptide solubility

Substance | Target(s) (microorganisms [1]; [4]) | Activities (microorganisms [2]) | Organism, effect: C. jeikeium (microorganisms [3]) | Organism, effect: MRSA (microorganisms [3]) | Organism, effect: S. epidermidis (microorganisms [3]) | Target(s) (microorganisms [1]; [5]) | also measured
PF-046: peptide having multiple activities (LDFYLTKHLTLML; Peptide with targeting and/or antimicrobial activity) | E. coli; also recorded: E. faecalis; also recorded: C. jeikeium | G B | C. jeikeium (R) | MRSA (R) | S. epidermidis (C) |  | 
PF-048: peptide having multiple activities (LYFAFKKYQERVNQAPNIEY; Peptide with targeting and/or antimicrobial activity) | S. epidermidis and M. luteus and E. coli and MRSA and C. jeikeium and C. jejuni | G B | C. jeikeium (S) | MRSA (W) | S. epidermidis (D) |  | 
PF-049: peptide having multiple activities (AYYLKRREEKGK; Peptide with targeting and/or antimicrobial activity) | S. epidermidis and MRSA and C. jeikeium and C. jejuni | G B |  | MRSA (S) |  |  | 
PF-051: peptide having multiple activities (RFFNFEIKKSTKVDYVFAHVDLSDV; Peptide with targeting and/or antimicrobial activity) | S. epidermidis and M. luteus and P. aeruginosa and C. albicans and MRSA and S. pneumoniae and E. faecalis | G B |  | MRSA (D) | S. epidermidis (D) |  | Organism, effect: M. luteus (microorganisms [3]): M. luteus (C); Organism, effect: S. mutans (microorganisms [3]; S. mutans, class symbol): S. mutans (D); Organism, effect: S. pneumoniae (microorganisms [3]): S. pneumoniae (D)
PF-052: peptide having multiple activities (QELINEAVNLLVKSK; Peptide with targeting and/or antimicrobial activity) | S. epidermidis and M. luteus and E. coli and MRSA and E. faecalis and C. jeikeium and C. jejuni | G B | C. jeikeium (D) | MRSA (R) | S. epidermidis (S) |  | Organism, effect: M. luteus (microorganisms [3]): M. luteus (A)
PF-058: peptide having multiple activities (FADQSQDNA; Peptide with targeting and/or antimicrobial activity) | S. epidermidis and M. luteus and E. coli and C. albicans and MRSA and C. jeikeium and C. jejuni | G B |  | MRSA (M) |  |  | 
PF-061: peptide having multiple activities (GYNSYKAVQDVKTHSEEQRVTAKK; Peptide with targeting and/or antimicrobial activity) | S. epidermidis; also recorded: S. pneumoniae | G B |  |  | S. epidermidis (R) |  | Organism, effect: B. subtilis (microorganisms [3]): B. subtilis (R); Organism, effect: C. jejuni (microorganisms [3]): C. jejuni (R); Organism, effect: S. pneumoniae (microorganisms [3]): S. pneumoniae (R)
PF-064: peptide having multiple activities (DYYGKE; Peptide with targeting and/or antimicrobial activity) | E. coli | G B |  | MRSA (M) | S. epidermidis (D) |  | 
PF-065: peptide having multiple activities (LEKNTRDNYFIHAIDRIYINTSKGLFPESELVAWG; Peptide with targeting and/or antimicrobial activity) | M. luteus and E. coli and P. aeruginosa and C. albicans and MRSA and S. pneumoniae and C. jeikeium and C. jejuni | G B | C. jeikeium (A) | MRSA (R) | S. epidermidis (D) |  | 
PF-069: peptide having multiple activities (chain 1 FDPVPLKKDKSASKHSHKHNH; chain 2 FDPVPLKKDKSASKHSHKHNH; Peptide with targeting and/or antimicrobial activity) | E. faecalis; also recorded: C. jejuni | G B |  |  |  |  | Organism, effect: B. subtilis (microorganisms [3]): B. subtilis (D); Organism, effect: C. jejuni (microorganisms [3]): C. jejuni (R)
PF-070: peptide having multiple activities (chain 1 SMVKSEIVDLLNGEDNDD; chain 2 SMVKSEIVDLLNGEDNDD; Peptide with targeting and/or antimicrobial activity) | S. epidermidis; also recorded: C. jejuni | G B |  |  |  |  | Organism, effect: B. subtilis (microorganisms [3]): B. subtilis (D)
PF-074: peptide having multiple activities (chain 1 RDIHPIYFMTKD; chain 2 RDIHPIYFMTKD; Peptide with targeting and/or antimicrobial activity) |  | G B |  | MRSA (M) | S. epidermidis (D) | S. epidermidis and M. luteus and MRSA | 
PF-099: peptide having multiple activities (chain 1 EIIAYLEGRFANA; chain 2 EIIAYLEGRFANA; Peptide with targeting and/or antimicrobial activity) |  | G B | C. jeikeium (C) |  | S. epidermidis (D) | S. epidermidis; also recorded: M. luteus; also recorded: E. coli; also recorded: C. jeikeium | 
PF-123: peptide having multiple activities (chain 1 TTRPQVAEDRQLDDALKETFPASDPISP; chain 2 TTRPQVAEDRQLDDALKETFPASDPISP; Peptide with targeting and/or antimicrobial activity) |  | G B |  |  | S. epidermidis (M) | M. luteus; also recorded: E. coli | 
PF-128: peptide having multiple activities (chain 1 GIKVVAARFEEIQFSENFDSIILA; chain 2 GIKVVAARFEEIQFSENFDSIILA; Peptide with targeting and/or antimicrobial activity) |  | G B |  |  | S. epidermidis (D) | M. luteus; also recorded: P. aeruginosa; also recorded: E. faecalis | Organism, effect: P. aeruginosa (microorganisms [3]; P. aeruginosa): P. aeruginosa (C)
PF-129: peptide having multiple activities (chain 1 MKLLARDPWVCAWNDIW; chain 2 MKLLARDPWVCAWNDIW; Peptide with targeting and/or antimicrobial activity) |  | G B | C. jeikeium (R) |  | S. epidermidis (M) | S. epidermidis and MRSA and E. faecalis and C. jeikeium and C. jejuni | 
PF-133: peptide having multiple activities (chain 1 GDPTAGQKPVECP; chain 2 GDPTAGQKPVECP; Peptide with targeting and/or antimicrobial activity) |  | G B | C. jeikeium (R) |  |  | S. epidermidis; also recorded: C. jeikeium; also recorded: C. jejuni; also recorded: M. smegmatis | 
PF-135: peptide having multiple activities (chain 1 PPARPARIPQTPTLHGASLFRQRS; chain 2 PPARPARIPQTPTLHGASLFRQRS; Peptide with targeting and/or antimicrobial activity) |  | G B | C. jeikeium (R) |  |  | S. epidermidis and M. luteus and E. coli and P. aeruginosa and MRSA and C. jeikeium and M. smegmatis | 
PF-144: peptide having multiple activities (chain 1 RSGQPVGRPSRRAWLR; chain 2 RSGQPVGRPSRRAWLR; Peptide with targeting and/or antimicrobial activity) |  | G B |  |  |  | S. epidermidis and M. luteus and E. coli and C. albicans and MRSA and S. pneumoniae and E. faecalis and C. jeikeium | Organism, effect: S. pneumoniae (microorganisms [3]): S. pneumoniae (H)
PF-149: peptide having multiple activities (chain 1 GKVSVLTRVPRSLGGAPANQ; chain 2 GKVSVLTRVPRSLGGAPANQ; Peptide with targeting and/or antimicrobial activity) |  | G B |  | MRSA (H) |  | S. epidermidis and M. luteus and E. coli and MRSA and C. jeikeium | 
